Molecular target: recombinant human PDE-10 enzyme (Homo sapiens (Human), UniProt Q9Y233)
Assay: human PDE-10 inhibition assay (IMAP PDE Fluorescence Polarization enzyme assay)
Format: biochemical
Conditions: Fluorescein-labeled cAMP/cGMP substrate, 40-minute incubation at 37° C.
Method: In one embodiment, the compounds provided herein were assayed for their ability to inhibit human PDE-10A. In one embodiment, the activities of the compounds were determined using the Molecular Devices IMAP PDE Fluorescence Polarization assay using recombinant human PDE-10 enzyme expressed in a baculoviral system. Briefly, 10 μL of a compound (0.2 nM-20 μM) was added to either a 96-well half area black plate or a 384-well black plate along with 10 μL of Fluorescein-labeled cAMP/cGMP substrate as per manufacturer's instructions and 10 μL of PDE enzyme (activity 0.1 U). Following a 40-minute incubation at 37° C., 60 μL of IMAP binding reagent was added. The plate was then read on a Perkin Elmer Victor (480-535 nm). The data was analyzed using Prism Software (GraphPad Inc, San Diego, Calif.).

Sequence of recombinant human PDE-10 enzyme (Q9Y233 whole entry): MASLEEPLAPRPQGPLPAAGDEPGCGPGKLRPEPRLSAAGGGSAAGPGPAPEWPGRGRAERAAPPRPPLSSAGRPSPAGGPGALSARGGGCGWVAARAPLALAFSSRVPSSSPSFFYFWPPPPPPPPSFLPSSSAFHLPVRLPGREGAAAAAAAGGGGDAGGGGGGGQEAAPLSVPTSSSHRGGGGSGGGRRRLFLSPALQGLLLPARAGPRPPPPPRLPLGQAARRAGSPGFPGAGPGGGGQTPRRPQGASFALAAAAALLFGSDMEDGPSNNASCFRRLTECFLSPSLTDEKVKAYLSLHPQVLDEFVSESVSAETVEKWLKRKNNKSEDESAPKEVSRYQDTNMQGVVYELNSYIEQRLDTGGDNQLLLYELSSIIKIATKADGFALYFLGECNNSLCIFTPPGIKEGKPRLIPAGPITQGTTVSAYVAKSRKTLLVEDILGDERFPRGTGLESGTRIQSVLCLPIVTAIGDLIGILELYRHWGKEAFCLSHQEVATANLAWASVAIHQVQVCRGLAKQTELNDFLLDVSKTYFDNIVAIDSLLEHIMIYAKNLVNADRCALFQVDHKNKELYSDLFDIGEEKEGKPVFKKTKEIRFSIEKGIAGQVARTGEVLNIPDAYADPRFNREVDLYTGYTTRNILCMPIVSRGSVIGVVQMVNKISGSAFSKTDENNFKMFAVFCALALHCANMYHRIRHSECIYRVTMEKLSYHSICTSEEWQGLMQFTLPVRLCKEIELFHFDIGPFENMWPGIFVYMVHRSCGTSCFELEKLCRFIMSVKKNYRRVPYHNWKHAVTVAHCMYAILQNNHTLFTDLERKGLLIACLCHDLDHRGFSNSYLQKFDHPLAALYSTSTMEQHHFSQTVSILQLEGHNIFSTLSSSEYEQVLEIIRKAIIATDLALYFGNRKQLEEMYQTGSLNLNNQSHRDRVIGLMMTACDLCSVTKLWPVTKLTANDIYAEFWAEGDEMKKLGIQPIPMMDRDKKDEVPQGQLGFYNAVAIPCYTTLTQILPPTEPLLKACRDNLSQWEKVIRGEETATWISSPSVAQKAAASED

Cc1ncc(C)n2nc(CCc3nc4c(C)ncc(C)n4n3)nc12 [Compound 2]
IC50: > 500 nM

Reference: US10570156B2, “Substituted imidazo[1,2-a]pyridines as PDE-10 inhibitors” (SUNOVION PHARMACEUTICALS INC., priority 2011, dated 2020)
